Here are results for eleven compounds from patent US4883863A, “Tripeptide derivatives and antiplasmin agents containing the same” (Nitto Boseki Co., Ltd., priority 1987, dated 1989).

pIC50: −log10 of the molar value. Structures can show the parent of a compound that is named as a salt. Where a SMILES comes first, the peptide text is derived from it. [ ]: non-standard residue; d: D form. The star is where a group is joined. Tos = Cc1ccc(S(=O)(=O)*)cc1

Assay [1] has as its target T1, plasmin (Homo sapiens, UniProt P00747). The experiment in a line: Inhibitory activity on fibrin decomposition by plasmin (natural substrate). The arrangement: Standard human serum (0.1 ml); from tissue. Particulars: concentration doubling time for complete dissolution, 25° C. The assay is classed as biochemical. How it is done: The determination was carried out by the method of Okamoto et al. (see Keio Journal of Medicine, vol. 11, p. 105 (1962).
Standard human serum (0.1 ml), 0.4 ml of each of 1/20 M potassium phosphate sodium physiological salt buffer solutions (pH 7.4) containing various concentrations of each inhibitor, and 0.1 ml of a solution of streptokinase in physiological saline (1000 U/ml) were stirred and then cooled at 0° C. for 10 minutes. Thereto was added 0.05 ml of a solution of thrombin in physiological saline (100 NIHU/ml, mfd. by Parke Davis Co. Ltd.) at 0° C. After standing for 1 minute, 0.3 ml of a 0.33% solution of bovine fibrinogen (F-4753, available from Sigma Chemical Co.) in physiological saline was added, and the resulting mixture was allowed to stand at 25° C. The solubility was measured every minute by the standard of judgement of Nakamura (see Allergy, vol. 5, p. 1 (1956)) and the time required for complete dissolution was determined. A concentration of the inhibitor at which said time is twice that required in the absence of the inhibitor was determined as IC50.
Target sequence in this assay (P00747 581-810 limits assumed): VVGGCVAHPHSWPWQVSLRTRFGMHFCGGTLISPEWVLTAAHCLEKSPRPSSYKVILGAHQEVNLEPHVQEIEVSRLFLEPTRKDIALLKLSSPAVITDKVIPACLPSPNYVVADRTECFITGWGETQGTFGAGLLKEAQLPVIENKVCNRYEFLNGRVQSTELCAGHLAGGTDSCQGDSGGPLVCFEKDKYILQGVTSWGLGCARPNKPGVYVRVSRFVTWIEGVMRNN
Target sequence in this assay (P00747 97-580 partner limits assumed): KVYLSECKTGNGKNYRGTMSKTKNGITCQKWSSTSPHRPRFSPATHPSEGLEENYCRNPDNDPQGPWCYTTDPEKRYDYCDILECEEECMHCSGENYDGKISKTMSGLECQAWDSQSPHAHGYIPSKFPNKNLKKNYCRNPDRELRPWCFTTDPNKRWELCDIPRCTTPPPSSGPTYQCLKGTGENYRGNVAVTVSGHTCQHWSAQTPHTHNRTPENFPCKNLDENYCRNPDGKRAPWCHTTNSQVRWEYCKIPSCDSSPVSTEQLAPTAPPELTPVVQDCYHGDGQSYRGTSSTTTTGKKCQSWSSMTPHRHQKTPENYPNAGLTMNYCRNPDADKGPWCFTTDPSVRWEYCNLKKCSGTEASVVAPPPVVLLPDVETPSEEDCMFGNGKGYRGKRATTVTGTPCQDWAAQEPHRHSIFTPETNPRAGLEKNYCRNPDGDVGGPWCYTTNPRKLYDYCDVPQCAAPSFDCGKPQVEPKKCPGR

Assay [2] has as its target T1, plasmin. Description: Plasmin-inhibiting activity, synthetic substrate PS-994. The arrangement: purchased Sankyo (Color Test α2 -D1 Kit). The assay is classed as biochemical. Conditions: PS-994, pH 7.8, 37° C. The text has this: (§1) Synthetic substrates used for testing the inhibitory activity of the inhibitors on decomposition of substrates by the enzymes were as follows. For plasmin, PS-994 (H--D--Lys(Tos)--Phe--Lys--CHA·2HCl, mfd. by NITTO BOSEKI Co., Ltd.) was used; for thrombin and trypsin, PS-915 (H--D--Phe--Pro--Arg--CHA·2HCl, mfd. by NITTO BOSEKI Co., Ltd.); for Factor Xa, PS-2000 (Z--D--Lys--(HCO)--Gly--Arg--CHA·HCl, mfd. by NITTO BOSEKI Co., Ltd.); and for kallikrein, S-2302 (H--D--Pro--Phe--Arg--pNA, mfd., by Kabi Co., Ltd.).
(§2) As plasmin, standard plasmin of Sankyo Color Test α2 -D1 Kit was used in an amount of 0.3CU/ml. As thrombin, that of Sankyo Color Test ATIII kit was used in an amount of 1.2 NIHU/ml. As trypsin, that of cord 3703 of Worthington was used in an amount of 2 μg/ml. As human Factor Xa, that of Boehringer Manheim Co., Ltd. was used in an amount of 0.25 U/ml. As human plasma kallikrein, that of Kabi Co., Ltd. was used in an amount of 0.12 U/ml. As terminating color reagents, those for Sankyo Color Test Kit were used. The reactions were carried out at 37° C. unless otherwise specified.
Each of aqueous solutions (0.1 ml) of the inhibitors which solutions were various in their respective concentrations was added to 0.4 ml of a buffer solution (a 150 mM aqueous sodium chloride solution containing 100 mM Tris, pH 7.8), and the resulting solution was heated for 5 minutes. To this solution was added 0.2 ml of plasmin solution, followed by incubation for 5 minutes, and then 0.1 ml of a PS-994 solution (10 mM) was added, and then incubated for 5 minutes. After completion of the reaction, 2.0 ml of terminating color reagent was added, and after standing for 10 minutes, absorbance at 700 nm was measured. A concentration of the inhibitor in the reaction system at which the absorbance was one-half that obtained in the absence of the inhibitor was determined as IC50.
Target sequence in this assay (P00747 581-810 limits assumed, species assumed): as the sequence (P00747 581-810 limits assumed) above
Target sequence in this assay (P00747 97-580 partner limits assumed, species assumed): as the sequence (P00747 97-580 partner limits assumed) above

The next assay concerns the target T2, trypsin (Bos taurus, UniProt P00760).
T2 construct: purchased Worthington 3703
T2 sequence (P00760 24-246): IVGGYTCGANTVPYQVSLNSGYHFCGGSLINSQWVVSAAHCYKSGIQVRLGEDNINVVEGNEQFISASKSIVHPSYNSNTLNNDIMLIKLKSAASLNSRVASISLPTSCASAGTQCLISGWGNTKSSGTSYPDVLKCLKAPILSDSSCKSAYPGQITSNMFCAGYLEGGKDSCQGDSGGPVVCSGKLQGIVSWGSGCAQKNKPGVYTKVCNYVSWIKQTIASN
The experiment in a line: Trypsin-inhibiting activity, synthetic substrate PS-915. The assay is classed as biochemical. Conditions: PS-915, pH 8.0, 37° C.
From the text: as §1, §2
Each of aqueous solutions (0.1 ml) of the inhibitors which solutions were various in their respective concentrations was added to 0.5 ml of a buffer solution (a 150 mM aqueous sodium chloride solution containing 150 mM Tris, pH 8.0), and the resulting solution was heated for 5 minutes. Then, 0.1 ml of a trypsin solution was added, followed by incubation for 5 minutes. Subsequently, 0.1 ml of a PS-915 solution (10 mM) was added, followed by incubation for 5 minutes. Thereafter, 2 ml of terminating color reagent [containing […] of soybean trypsin inhibitor (No. T-9003, available from Sigma Chemical Co.)] was added. After standing for 10 minutes, absorbance at 700 nm was measured and IC50 was determined in the manner described above.

The next assay addresses T3, thrombin (Homo sapiens, UniProt P00734).
T3 construct: purchased Sankyo (Color Test ATIII kit)
The experiment in a line: Thrombin-inhibiting activity, synthetic substrate PS-915. It counts as biochemical. Particulars: PS-915, pH 8.5, 37° C.
From the text: as §1, §2
Each of aqueous solutions (0.1 ml) of the inhibitors which solutions were various in their respective concentrations was added to 0.4 ml of a buffer solution (a 150 mM aqueous sodium chloride solution containing 150 mM Tris, pH 8.5), and the resulting solution was heated for 5 minutes. To this solution was added 0.2 ml of thrombin solution, followed by incubation for 5 minutes. Then, 0.1 ml of a PS-915 solution (10 mM) was added, followed by incubation for 5 minutes. Thereafter, 2 ml of terminating color reagent was added. After standing for 10 minutes, absorbance at 700 nm was measured, and IC50 was determined in the manner described above.

The target of the next assay is T4, human Factor Xa (Homo sapiens, UniProt P00742).
T4 construct: purchased Boehringer Manheim Co., Ltd
Description: Factor Xa-inhibiting activity, synthetic substrate PS-2000. It counts as biochemical. Conditions: PS-2000, pH 8.5, 37° C.
From the text: as §1, §2
Each of aqueous solutions (1 ml) of the inhibitors which solutions were various in their respective concentrations was added to 0.3 ml of a buffer solution (a 150 mM aqueous sodium chloride solution containing 50 mM Tris, pH 8.5 ), and the resulting solution was heated for 5 minutes. Then, 0.1 ml of a Factor Xa solution (a 150 mM aqueous sodium chloride solution containing 50 mM Tris and 20 mM calcium chloride, pH 8.5) was added, followed by incubation for 5 minutes. Subsequently, a 5% polyvinyl pyrrobidone solution (0.1 ml) containing 10 mM PS-2000 was added, followed by incubation for 5 min. Thereafter, 2 ml of terminating color reagent was added. After standing for 10 minutes, absorbance at 700 nm was measured and IC50 was determined in the manner described above.

Another assay has as its target T5, human plasma kallikrein (Homo sapiens, UniProt P03952).
T5 construct: purchased Kabi Co., Ltd
The experiment in a line: Kallikrein-inhibiting activity, synthetic substrate S-2302. Conditions: S-2302, pH 8.0, 37° C. It counts as biochemical.
From the text: as §1, §2
Each of aqueous solutions (0.1 ml) of the inhibitors which solutions were various in their respective concentrations was added to 0.4 ml of a buffer solution (a 150 mM aqueous sodium chloride solution containing 50 mM Tris, pH 8.0), and the resulting mixture was heated for 5 minutes. Then, 0.1 ml of a kallikrein solution [containing 0.5% bovine serum albumin (No. A8022 available from Sigma Chemical Co.)] was added, followed by incubation for 5 minutes. Subsequently, a 10 mM S-2302 aqueous solution (0.1 ml) was added. The reaction was terminated by addition of a 20% aqueous acetic acid solution. Absorbance at 405 nm was measured and IC50 was measured in the manner described above.

Assay [3] addresses T1, plasmin. Set-up: purchased Sankyo (Color Test α2 -D1 Kit). Particulars: background, related art; cited from earlier work.
Target sequence in this assay (P00747 581-810 limits assumed, species assumed): as the sequence (P00747 581-810 limits assumed) above
Target sequence in this assay (P00747 97-580 partner limits assumed, species assumed): as the sequence (P00747 97-580 partner limits assumed) above
The next assay concerns thrombin and trypsin. Conditions: background, related art; cited from earlier work.

T5 sequence (P03952 391-638 limits assumed): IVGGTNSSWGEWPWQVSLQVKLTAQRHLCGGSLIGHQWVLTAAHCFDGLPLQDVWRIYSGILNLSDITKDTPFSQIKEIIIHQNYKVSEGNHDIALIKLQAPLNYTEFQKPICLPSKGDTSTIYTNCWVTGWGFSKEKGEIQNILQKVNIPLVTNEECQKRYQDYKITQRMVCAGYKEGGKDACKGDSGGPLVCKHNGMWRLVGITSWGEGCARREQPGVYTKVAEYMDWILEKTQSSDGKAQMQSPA
T5 sequence (P03952 20-390 partner limits assumed): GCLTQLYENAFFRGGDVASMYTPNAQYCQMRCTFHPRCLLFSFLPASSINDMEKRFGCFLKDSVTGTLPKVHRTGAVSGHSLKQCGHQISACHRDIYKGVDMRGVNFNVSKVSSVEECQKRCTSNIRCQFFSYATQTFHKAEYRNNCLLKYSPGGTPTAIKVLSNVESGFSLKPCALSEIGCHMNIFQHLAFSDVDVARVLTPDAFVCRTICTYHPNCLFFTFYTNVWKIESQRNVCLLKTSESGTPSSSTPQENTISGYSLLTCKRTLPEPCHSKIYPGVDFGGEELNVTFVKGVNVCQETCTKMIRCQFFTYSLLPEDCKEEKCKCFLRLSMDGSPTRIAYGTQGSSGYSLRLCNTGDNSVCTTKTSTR
T4 sequence (P00742 235-488 limits assumed): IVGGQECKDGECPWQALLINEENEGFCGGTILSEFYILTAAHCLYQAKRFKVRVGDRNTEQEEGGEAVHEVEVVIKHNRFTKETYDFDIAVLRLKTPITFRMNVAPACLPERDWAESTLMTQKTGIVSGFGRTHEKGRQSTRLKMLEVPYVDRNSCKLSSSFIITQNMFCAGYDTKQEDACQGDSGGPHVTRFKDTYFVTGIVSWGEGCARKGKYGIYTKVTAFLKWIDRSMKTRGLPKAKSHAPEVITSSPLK
T4 sequence (P00742 41-179 partner limits assumed): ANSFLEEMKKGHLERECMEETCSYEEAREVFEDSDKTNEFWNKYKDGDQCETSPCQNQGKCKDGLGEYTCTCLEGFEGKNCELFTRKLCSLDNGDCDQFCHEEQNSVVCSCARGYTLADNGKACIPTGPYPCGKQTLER

Consider `CC(=O)N[C@H](CCCCNS(=O)(=O)c1ccc(C)cc1)C(=O)N[C@@H](Cc1ccccc1)C(=O)N[C@H](C=O)CCCCN` [Compound 3, N-α-Acetyl-N-ε-(p-tosyl)-D-lysyl-L-phenylalanyl-L-lysinal hydrochloride] (Ac-[dK](Tos)-Phe-Lys-aldehyde), for which the negative-log IC50 (pIC50) is 6.43 against plasmin [1] (Table 4); 6.18 at plasmin [2] (Table 4); 4.57 on trypsin (Table 4); less than 3.00 on thrombin (Table 4); 3.70 against human Factor Xa (Table 4); 5.31 against human plasma kallikrein (Table 4).

As to `Cc1ccc(S(=O)(=O)NCCCC[C@@H](NS(=O)(=O)c2ccc(C)cc2)C(=O)N[C@@H](Cc2ccccc2)C(=O)N[C@H](C=O)CCCCN)cc1` [Compound 5, N-α-N-ε-Di(p-tosyl)-D-lysyl-L-phenylalanyl-L-lysinal hydrochloride] (Tos-[dK](Tos)-Phe-Lys-aldehyde), the negative-log IC50 (pIC50) against plasmin [1] (Table 4) was 6.11; on plasmin [2] (Table 4), 7.49; at trypsin (Table 4), 5.49; at thrombin (Table 4) it was less than 3.00; against human Factor Xa (Table 4), 4.80; on human plasma kallikrein (Table 4), 6.27.

With `Cc1ccc(S(=O)(=O)NCCCC[C@@H](N)C(=O)N[C@@H](Cc2ccccc2)C(=O)N[C@H](C=O)CCCCN)cc1` [Compound 7, N-ε-(p-Tosyl)-D-lysyl-L-phenylalanyl-L-lysinal dihydrochloride] (H-[dK](Tos)-Phe-Lys-aldehyde), the pIC50 is 6.57 against plasmin [1] (Table 4); 6.77 against plasmin [2] (Table 4); 4.74 against trypsin (Table 4); less than 3.00 against thrombin (Table 4); 3.80 on human Factor Xa (Table 4); 6.02 at human plasma kallikrein (Table 4).

As for `CN(C)C(=O)COC(=O)Cc1ccc(OC(=O)c2ccc(NC(=N)N)cc2)cc1` [Camostat], the antiplasmin activity result on plasmin [3] was “have antiplamin activity”. Besides, the “inhibition of proteases other than plasmin, for example, thrombin and trypsin” value (from here on “inhibition”) in the assay with thrombin and trypsin is “strongly inhibit”.

As to `CC(=O)N[C@@H](CC(C)C)C(=O)N[C@@H](CC(C)C)C(=O)N[C@H](C=O)CCCNC(=N)N` [Compound A4, AcLeuLeuArgH.1/2H2 SO4.H2 O (leupeptin), reference compound], the negative-log IC50 (pIC50) at plasmin [1] (Table 3) was 5.26; against plasmin [2] (Table 3), 4.70; at trypsin (Table 3), 6.11; at thrombin (Table 3) it was 3.23; against human Factor Xa (Table 3), 4.85; on human plasma kallikrein (Table 3), 3.89.

With `CCOC(=O)c1ccc(OC(=O)CCCCCN=C(N)N)cc1.CS(=O)(=O)O` [FOY], the antiplasmin activity entry at plasmin [3] is “have antiplamin activity”. Further, the “inhibition” value in the assay on thrombin and trypsin is reported as “strongly inhibit”.

For the compound aprotinin, the antiplasmin activity result on plasmin [3] is listed as “have antiplamin activity”. For the same compound, in the assay on thrombin and trypsin, the “inhibition” value is on record as “strongly inhibit”.

As for `Cc1ccc(S(=O)(=O)NCCCC[C@@H](NC(=O)OCC(C)C)C(=O)N[C@@H](Cc2ccccc2)C(=O)N[C@H](C=O)CCCCN)cc1` [Compound 1, N-α-Isobutoxycarbonyl-N-ε-(p-tosyl)-D-lysyl-L-phenylalanyl-L-lysinal hydrochloride], the pIC50 is 6.64 against plasmin [1] (Table 4); 7.47 against plasmin [2] (Table 4); 5.55 against trypsin (Table 4); less than 3.00 against thrombin (Table 4); 5.09 against human Factor Xa (Table 4); 6.74 on human plasma kallikrein (Table 4).

For the compound `Cc1ccc(S(=O)(=O)NCCCC[C@@H](NC(=O)OCC(C)C)C(=O)N[C@@H](Cc2ccccc2)C(=O)N[C@@H](CCCCN)C(=O)CCl)cc1` [Compound 13, N-α-Isobutoxycarbonyl-N-ε-(p-tosyl)-D-lysyl-L-phenylalanyl-L-lysine chloromethyl ketone hydrochloride], the negative logarithm of the IC50 (pIC50) against plasmin [1] (Table 4) is 6.36; on plasmin [2] (Table 4), 7.51; at trypsin (Table 4), 6.17; at thrombin (Table 4) it was 5.60; at human Factor Xa (Table 4), 5.54; against human plasma kallikrein (Table 4), 6.96.

For the compound `CC(=O)N[C@@H](CC(C)C)C(=O)N[C@@H](CC(C)C)C(=O)N[C@H](C=O)CCCCN` [acetyl-L-leucyl-L-leucyl-lysinal] (Ac-Leu-Leu-Lys-aldehyde), at plasmin [3], the antiplasmin activity entry is on record as “has antiplasmin activity”.

For the compound `N=C(N)Nc1ccc(C(=O)Oc2ccc3cc(C(=N)N)ccc3c2)cc1` [Nafamstat], the antiplasmin activity result on plasmin [3] is “have antiplamin activity”. Further, the “inhibition” value in the assay with thrombin and trypsin is given as “strongly inhibit”.

Broadly, the pIC50 is −log10 of the IC50, conventionally taken in molar units. A lower pIC50 goes with a high IC50.
